Test results taken from US20240254218A1 (ICAHN SCHOOL OF MEDICINE AT MOUNT SINAI, priority 2021, published 2024).

Experiments:
FSH receptor (FSHR) = biological target: T1, FSH receptor (FSHR) (Homo sapiens, UniProt P23945); conditions: cited from earlier work
T1 sequence (P23945 18-695): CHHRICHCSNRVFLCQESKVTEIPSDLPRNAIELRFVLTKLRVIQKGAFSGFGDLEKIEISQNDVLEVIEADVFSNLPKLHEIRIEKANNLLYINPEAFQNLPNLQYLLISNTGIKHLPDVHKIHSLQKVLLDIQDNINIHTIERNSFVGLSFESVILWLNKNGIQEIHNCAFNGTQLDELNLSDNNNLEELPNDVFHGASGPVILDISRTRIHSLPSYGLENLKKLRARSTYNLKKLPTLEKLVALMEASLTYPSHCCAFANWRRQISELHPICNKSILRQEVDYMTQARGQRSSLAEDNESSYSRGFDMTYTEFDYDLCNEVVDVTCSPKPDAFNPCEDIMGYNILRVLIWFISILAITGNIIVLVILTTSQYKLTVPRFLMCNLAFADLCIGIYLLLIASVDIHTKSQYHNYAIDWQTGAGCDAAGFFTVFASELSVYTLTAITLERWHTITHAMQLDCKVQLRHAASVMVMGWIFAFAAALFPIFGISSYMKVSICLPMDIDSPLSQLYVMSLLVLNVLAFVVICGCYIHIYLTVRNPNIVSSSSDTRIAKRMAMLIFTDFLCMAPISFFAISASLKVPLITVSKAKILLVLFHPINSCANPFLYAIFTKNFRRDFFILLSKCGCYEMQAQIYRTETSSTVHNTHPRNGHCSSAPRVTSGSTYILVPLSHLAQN

FSHR signaling = assay: Pathway inhibitors on FSH-induced signalling in SH-SY5Y cells; format: cell-based, human; conditions: FSH 30 ng/ml 30 minutes; for FSH-induced SRPK2 phosphorylation/activation / FSH-induced AEP activation (cleavage and phosphorylation) / FSH-induced C/EBPβ activation/expression: AKTi-1/2 10 μM; for FSH-induced SRPK2 phosphorylation/activation / FSH-induced AEP activation (cleavage and phosphorylation) / FSH-induced C/EBPβ activation/expression / FSH-induced AKT phosphorylation: PD98059 10 μM; for FSH-induced AEP activation (cleavage and phosphorylation) / FSH-induced C/EBPβ activation/expression / FSH-induced AKT phosphorylation: PTX 50 ng/ml
From the text: Of note, MAPK-induced phosphorylation of residue T188 of C/EBPβ regulates its transcriptional activity (Ramji, D. P. & Foka, P. Biochem J 365, 561-575, (2002)). Likewise, AKT phosphorylates SRPK2, which, in turn, activates AEP by phosphorylating residue S266. […] Pertussis toxin inhibited FSH-induced C/EBPβ and AEP activation and AKT phosphorylation (FIG. 2E). […] In contrast, while the MEK1 inhibitor PD98059 blocked FSH-induced C/EBPβ, AEP and SRPK2 activation, AKT was unaffected (FIG. 2E).

Row | Compound | mode of action on the FSH receptor (FSHR) (FSH receptor (FSHR)) | FSH-induced SRPK2 phosphorylation/activation (FSHR signaling) | FSH-induced AEP activation (cleavage and phosphorylation) (FSHR signaling) | FSH-induced C/EBPβ activation/expression (FSHR signaling) | FSH-induced AKT phosphorylation (FSHR signaling) | effect on any signaling molecule (FSHR signaling; SQ22536 100 μM)
1 | COc1ccc(N=Nc2c(S(=O)(=O)[O-])cc3cc(Nc4nc(Cl)nc(N(CCC(N)=O)CCC(N)=O)n4)ccc3c2O)cc1.[Na+] [7-[4-[Bis-(2-carbamoyl-ethyl)-amino]-6-chloro-(1,3,5)-triazin-2-ylamino)-4-hydroxy-3-(4-methoxy-phenylazo)-naphthalene]-2-sulfonic acid, sodium salt] | selective, noncompetitive inhibitor |  |  |  |  | 
2 | O=c1[nH]c2ccccc2n1C1CCN(Cc2ccc(-c3nc4cc5nc[nH]c5cc4nc3-c3ccccc3)cc2)CC1 [AKTi-1/2] |  | attenuated | attenuated | attenuated |  | 
3 | COc1cccc(-c2cc(=O)c3ccccc3o2)c1N [PD98059] |  | blocked | blocked | blocked | unaffected | 
4 | Nc1ncnc2c1ncn2C1CCCO1 (stereo not drawn) [SQ22536] |  |  |  |  |  | Absence of an effect
5 | pertussis toxin |  |  | inhibited | inhibited | inhibited | 
